From patent US20220265644A1, “FIXED DOSE COMBINATION DRUG FOR THE TREATMENT OF MALARIA” (priority 2020, published 2022)

Assays:
[1] = system: early ring stages from artemisinin-resistant and artemisinin-sensitive parasites (P. falciparum); test: Ring Stage Assay (RSA) as per WHO's recommendation; assay type: cell-based; conditions: at 700 nM
P. vivax [2] = test: Synriam Phase III, N=164, randomized, open label, multi-centric, uncomplicated P. vivax malaria; assay type: in vivo; conditions: Children 6 months - 12 Y
P. vivax [3] = test: Synriam Phase III, N=317, randomized, open label, multi-centric, uncomplicated P. vivax malaria; assay type: in vivo; conditions: Adults, Children >12 - 65 Y

Compound | cross-resistance to DHA [1] | activity against early ring stages ([1]; artemisinin-resistant and artemisinin-sensitive parasites) | Proportion of aparasitemic & afebrile patients at 72 h (%) ITT (P. vivax [2]; 72 h, ITT) | Proportion of aparasitemic & afebrile patients at 72 h (%) PP (P. vivax [2]; 72 h, PP) | FCT Median (P. vivax [2]; India) | PCT Median (P. vivax [2]; India) | Proportion of aparasitemic & afebrile patients at 72 h (%) ITT (P. vivax [3]; 72 h, ITT) | Proportion of aparasitemic & afebrile patients at 72 h (%) PP (P. vivax [3]; 72 h, PP) | FCT Median (h) (P. vivax [3]; India) | PCT Median (P. vivax [3]; India)
Arterolane | no cross-resistance to DHA | extremely active | – | – | – | – | – | – | – | –
CCN(CC)CCCC(C)Nc1ccnc2cc(Cl)ccc12 (stereo not shown) [Chloroquine] | – | – | 100% | PP: 100 vs. 100% | 18 h | 24 h | 98.7% | 99.3% | 24 vs. 24 h | 26 h
